The results in this text go back to patent US20250091994A1, “RAS/RAF BINDING INHIBITOR COMPOUND” (NATIONAL UNIVERSITY CORPORATION KOBE UNIVERSITY, priority 2021, published 2025).

Holding throughout (assay type): cell-based
The test system of experiment [1] is promyelocytic leukemia cells HL60 (N-RasQ61L). Put plainly: Cell growth inhibition, suspension cells HL60. The following applies: Homo sapiens, HL-60; 1 μM, 72 hours; read-out: HL-60 (NRasQ61L) % inhibition at 1 μM. In short, it runs like this: (§1)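 Suspension cells, 2 to 4×10^4 per well, cultured with compound in medium with 0.5% FBS (1% DMSO final) for 72 h at 37° C, 5% CO2. Viable cells counted with Cell Counting Reagent; inhibition calculated relative to controls.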

Experiment [2] has as its system small cell lung cancer cells SHP77 (K-RasG12V). In words: Cell growth inhibition, suspension cells SHP77. The following applies: Homo sapiens, 1 μM, 72 hours, read-out: SHP77 (KRasG12V) % inhibition at 1 μM. A digest of the protocol:
as §1

The test system of experiment [3] is large bowel cancer cells SW480 (K-RasG12V). In words: Cell growth inhibition, adherent cells SW480. The settings on record: Homo sapiens, 72 hours, read-out: SW480 (KRasG12V) % inhibition at 10 μM. As to the method: The cell growth inhibitory activity of the compound of the present invention on human culture cells having active-type mutation in Ras was evaluated by the below-mentioned method using suspension cancer cells {acute lymphoblastic leukemia cells CCRF-CEM (K-RasG12D), promyelocytic leukemia cells HL60 (N-RasQ61L), acute lymphoblastic leukemia cells MOLT4 (N-RasG12C), and small cell lung cancer cells SHP77 (K-RasG12V)} and adherent cancer cells {large bowel cancer cells SW480 (K-RasG12V) and large bowel cancer cell SW620 (K-RasG12V)}.
(Case of adherent cells) The cells suspended in a medium containing 10% FBS (1 to 2×10^4 cells/well) were seeded on a 96-well plate, and were then cultured at 37° C. in the presence of […]. Thereafter, the medium was exchanged with a medium containing […], to which each compound solution (final DMSO concentration: […]) had been added, and the cells were then cultured at 37° C. in the presence of […] for 72 hours.
Thereafter, the number of viable cells was measured using Cell Counting Reagent (Nacalai Tesque) in accordance with the manufacturer's instructions. Inhibition by the test compound was determined according to the following equation: […]

Experiment [4] relates to phosphorylated MEK (pMEK) in HL60 cells. In words: Ras-Raf signaling inhibition at culture cell level, pMEK. The following applies: Homo sapiens, HL-60; HL60 (N-RasQ61L), 1 μM test compound, 3 hours. As to the method:
(§2) The Ras-Raf signaling inhibitory activity of the compound of the present invention at a culture cell level was evaluated by the following method.
(§3) The HL60 cells described in Test Example 2 suspended in a medium containing 0.5% (v/v) FBS with each compound solution (final DMSO concentration: 1%), were seeded on a 12-well plate (2 to 4×10^5 cells/well), and the resulting mixture was then cultured at 37° C. in the presence of 5% CO2 for 3 hours.
(§4) After completion of the cell culture, proteins were extracted from the cells, using RIPA Buffer (Nacalai Tesque) containing a mixture of protease inhibitors and phosphatase inhibitors. An equivalent amount of protein was separated by standard SDS-PAGE and was then transferred onto a PVDF membrane. In order to detect the activation (phosphorylation) of MEK and ERK, downstream molecules of the Ras-Raf signaling pathway, the membrane was probed with 1000-fold diluted primary antibodies {phosphorylated MEK (pMEK: #9121), phosphorylated ERK (pERK: #9101), total MEK (tMEK: #9122), and total ERK (tERK: 9102); all from Cell signaling}, and then with a 1000-fold diluted horseradish peroxidase-labeled secondary antibody against rabbit immunoglobulin G. The immunoreactive signals were colored with EzWestLumi One (ATTO), and were then detected by Fusion FX (Vilber). Signal intensity was quantified by pixel counting. Inhibition by the test compound was determined according to the following equation: […]

Experiment [5] has as its system phosphorylated ERK (pERK) in HL60 cells. In words: Ras-Raf signaling inhibition at culture cell level, pERK. The following applies: Homo sapiens, HL-60; HL60 (N-RasQ61L), 1 μM test compound, 3 hours. As to the method:
as §2, §3, §4

Molecules are shown by their SMILES.

For orientation: inhibition means the relative decrease from the control value, in per cent.

With `CC(=O)N1/C(=C\c2nc3cc(C(=O)N4CCOCC4)ccc3s2)C(=O)c2ccccc21` [Example 47, (Z)-1-acetyl-2-((5-(morpholine-4-carbonyl)benzo [d]thiazol-2-yl)-methylene)-indolin-3-one], the inhibition at 1 µM in experiment [1] came to 89%; in experiment [2], 61%; in experiment [4] it was 88%; in experiment [5], 94%. In addition, the inhibition at 10 µM in experiment [3] worked out at 51%.
